Patent US9840513B2 (AbbVie S.à.r.l., priority 2015, dated 2017)

Assays:
[1] = biological target: T1, F508delCFTR cell surface expression in CFBE41o-F508delCFTR-HRP cells (Homo sapiens, UniProt P13569, DEL508-508); test: Cell Surface Expression-Horse Radish Peroxidase (CSE-HRP) Assay; assay type: cell-based; details: for EC50: CFBE41o-F508delCFTR-HRP cells, 18-24 hours at 33° C., 8-point curve, highest concentration 20 μM; for Maximum % activity (%): maximum at any tested concentration, normalized to on-plate positive control (3 μM)
T1 construct: fused on or other part: Horseradish peroxidase (HRP) reporter inserted in the fourth exofacial (extracellular) loop of CFTR; expression is doxycycline-inducible
Method in brief: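 CFBE41o- cells with HRP-tagged F508delCFTR, expression induced by 0.5 μg/mL doxycycline for 72 h at 37 °C, then compound for 18-24 h at 33 °C (8-point, 3-fold, top 20 μM). Surface HRP measured by luminol luminescence; % activity normalised to 3 μM positive-control corrector; EC50 from variable-slope sigmoidal fit, three replicate plates.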

[2] = biological target: T2, F508delCFTR in primary hBE cells with F508del/F508del CFTR mutation (Homo sapiens, UniProt P13569, DEL508-508); test: Transepithelial Clamp Circuit on Human Bronchial Epithelial Cells Conductance Assay (hBE-TECC); assay type: cell-based; details: for EC50: primary hBE cells F508del/F508del, 18-24 hours at 37° C., equivalent short circuit current, 6 concentrations
T2 construct: cells isolated from CF patients with the homozygous mutation; endogenous in cells; host or cells: primary human bronchial epithelial (hBE) cells from F508del/F508del CF patients
Method in brief: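 Primary F508del/F508del hBE cells grown 35 days at air-liquid interface, treated basolaterally with correctors 18-24 h at 37° C. Ieq (Vt/Rt) at 36.5° C, pH 7.4, after benzamil, forskolin 10 μM, control potentiator, bumetanide; 6 concentrations normalized to DMSO and 3 μM positive-control corrector, EC50 by 4-parameter fit.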

[3] = relative to positive control (3 μM) coupled with control potentiator

T1 sequence (P13569 with tags, fused parts or gaps DEL508-508 limits assumed): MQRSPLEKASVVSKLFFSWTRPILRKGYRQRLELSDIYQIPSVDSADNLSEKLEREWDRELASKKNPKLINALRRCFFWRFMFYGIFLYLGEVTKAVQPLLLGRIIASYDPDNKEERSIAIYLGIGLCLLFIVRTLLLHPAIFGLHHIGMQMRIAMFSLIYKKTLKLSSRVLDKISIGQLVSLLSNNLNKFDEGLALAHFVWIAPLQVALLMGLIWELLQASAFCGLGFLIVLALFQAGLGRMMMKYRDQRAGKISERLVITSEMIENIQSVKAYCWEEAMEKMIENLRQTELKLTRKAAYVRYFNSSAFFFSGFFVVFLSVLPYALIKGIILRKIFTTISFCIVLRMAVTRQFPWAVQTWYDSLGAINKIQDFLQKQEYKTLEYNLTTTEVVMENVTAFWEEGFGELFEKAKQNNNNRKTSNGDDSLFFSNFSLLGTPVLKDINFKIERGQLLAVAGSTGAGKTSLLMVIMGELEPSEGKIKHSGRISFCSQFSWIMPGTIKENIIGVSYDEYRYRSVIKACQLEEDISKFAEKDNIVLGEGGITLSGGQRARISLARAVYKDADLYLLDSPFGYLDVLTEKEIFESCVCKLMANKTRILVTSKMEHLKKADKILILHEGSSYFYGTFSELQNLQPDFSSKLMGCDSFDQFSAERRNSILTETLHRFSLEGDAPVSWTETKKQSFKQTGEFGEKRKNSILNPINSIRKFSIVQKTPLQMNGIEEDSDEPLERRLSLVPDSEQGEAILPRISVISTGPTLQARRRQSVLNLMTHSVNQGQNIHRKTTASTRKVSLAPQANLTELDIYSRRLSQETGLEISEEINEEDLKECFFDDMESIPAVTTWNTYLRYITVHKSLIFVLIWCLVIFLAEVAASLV
T1 sequence (P13569 919-1480 limits assumed, stated change not applied): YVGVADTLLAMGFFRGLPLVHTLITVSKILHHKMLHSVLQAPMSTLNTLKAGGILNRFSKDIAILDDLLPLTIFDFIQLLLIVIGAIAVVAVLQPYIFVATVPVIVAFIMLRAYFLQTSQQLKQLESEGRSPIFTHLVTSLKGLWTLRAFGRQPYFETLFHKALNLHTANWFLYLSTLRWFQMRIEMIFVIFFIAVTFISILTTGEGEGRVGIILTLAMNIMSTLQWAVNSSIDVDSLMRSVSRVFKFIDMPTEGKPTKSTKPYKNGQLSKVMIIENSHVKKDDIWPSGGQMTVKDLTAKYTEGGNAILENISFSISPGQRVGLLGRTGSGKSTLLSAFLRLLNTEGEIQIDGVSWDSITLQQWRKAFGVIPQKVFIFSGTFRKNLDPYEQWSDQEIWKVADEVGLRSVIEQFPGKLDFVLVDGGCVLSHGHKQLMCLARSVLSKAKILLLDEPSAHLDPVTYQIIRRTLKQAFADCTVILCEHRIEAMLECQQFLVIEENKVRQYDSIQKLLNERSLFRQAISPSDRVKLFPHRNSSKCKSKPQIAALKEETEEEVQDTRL
T2 sequence (P13569 with tags, fused parts or gaps DEL508-508): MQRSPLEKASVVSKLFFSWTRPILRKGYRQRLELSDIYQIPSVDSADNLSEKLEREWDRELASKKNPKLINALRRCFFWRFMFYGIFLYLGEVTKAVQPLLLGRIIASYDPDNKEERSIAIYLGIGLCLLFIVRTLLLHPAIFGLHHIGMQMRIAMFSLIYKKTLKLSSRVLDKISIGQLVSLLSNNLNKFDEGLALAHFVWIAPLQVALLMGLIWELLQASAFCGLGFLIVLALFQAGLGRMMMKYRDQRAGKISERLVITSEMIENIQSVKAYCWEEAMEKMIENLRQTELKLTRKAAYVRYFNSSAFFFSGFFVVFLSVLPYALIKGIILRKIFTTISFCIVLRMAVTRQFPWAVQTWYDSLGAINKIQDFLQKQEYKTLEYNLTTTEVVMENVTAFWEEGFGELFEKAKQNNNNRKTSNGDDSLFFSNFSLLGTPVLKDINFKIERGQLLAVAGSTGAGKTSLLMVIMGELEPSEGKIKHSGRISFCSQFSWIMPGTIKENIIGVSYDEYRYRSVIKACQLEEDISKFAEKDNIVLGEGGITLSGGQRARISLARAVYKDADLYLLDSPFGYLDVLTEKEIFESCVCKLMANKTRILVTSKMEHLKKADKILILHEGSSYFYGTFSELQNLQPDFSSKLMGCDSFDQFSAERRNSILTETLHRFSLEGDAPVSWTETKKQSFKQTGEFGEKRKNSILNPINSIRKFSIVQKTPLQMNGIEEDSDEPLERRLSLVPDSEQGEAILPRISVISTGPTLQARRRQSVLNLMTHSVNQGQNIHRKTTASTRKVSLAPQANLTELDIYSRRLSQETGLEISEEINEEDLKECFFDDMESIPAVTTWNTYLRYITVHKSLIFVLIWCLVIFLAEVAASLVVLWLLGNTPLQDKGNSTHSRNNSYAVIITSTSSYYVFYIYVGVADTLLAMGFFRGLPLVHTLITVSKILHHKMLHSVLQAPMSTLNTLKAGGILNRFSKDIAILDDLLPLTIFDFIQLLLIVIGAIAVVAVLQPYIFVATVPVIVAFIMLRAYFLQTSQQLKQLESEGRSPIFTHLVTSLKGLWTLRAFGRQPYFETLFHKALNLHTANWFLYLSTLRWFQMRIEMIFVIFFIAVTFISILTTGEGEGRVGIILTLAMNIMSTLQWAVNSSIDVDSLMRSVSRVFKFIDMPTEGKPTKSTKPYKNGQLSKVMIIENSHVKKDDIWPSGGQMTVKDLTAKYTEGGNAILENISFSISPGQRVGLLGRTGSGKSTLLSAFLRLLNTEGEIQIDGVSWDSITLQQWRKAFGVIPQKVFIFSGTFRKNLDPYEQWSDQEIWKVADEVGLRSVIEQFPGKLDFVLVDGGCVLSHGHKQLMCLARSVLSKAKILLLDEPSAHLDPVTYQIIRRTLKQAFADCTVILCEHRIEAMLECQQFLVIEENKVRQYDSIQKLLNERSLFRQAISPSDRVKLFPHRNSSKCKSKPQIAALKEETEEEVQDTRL

Structure (SMILES)	EC50 [1]	Maximum % activity (%) [1]	Maximum % activity (%) ([2]; testing concentration 1 μM)	Maximum % activity (%) ([2]; testing concentration 3 μM)	Maximum % activity (%) ([2]; testing concentration 10 μM)	EC50 [2]	Maximum % activity (%) [2, 3]
COc1ccc2c(c1)O[C@@H](c1cccc(C(=O)O)c1)C[C@H]2NC(=O)C1(C)COc2cc3c(cc21)OC(F)(F)O3 (stereo partly drawn) [Example 11, 3-{(2R,4R)-4-[(2,2-difluoro-7-methyl-6,7-dihydro-2H-furo[2,3-f][1,3]benzodioxole-7-carbonyl)amino]-7-methoxy-3,4-dihydro-2H-1-benzopyran-2-yl}benzoic acid]	510 nM	166%	91%	–	–	–	–
C[C@]1(C(=O)Nc2cc(C3CC3)nn(-c3ccc(C(=O)O)cc3)c2=O)COc2cc3c(cc21)OC(F)(F)O3 [Example 32, 4-[3-cyclopropyl-5-{[(7R)-2,2-difluoro-7-methyl-6,7-dihydro-2H-furo[2,3-f][1,3]benzodioxole-7-carbonyl]amino}-6-oxopyridazin-1(6H)-yl]benzoic acid]	880 nM	144%	–	51%	–	–	–
C[C@]1(C(=O)Nc2ccc(Cl)c(-c3cccc(C(=O)O)c3)n2)COc2cc3c(cc21)OC(F)(F)O3 [Example 95, 3-(3-chloro-6-{[(7R)-2,2-difluoro-7-methyl-6,7-dihydro-2H-furo[2,3-f][1,3]benzodioxole-7-carbonyl]amino}pyridin-2-yl)benzoic acid]	590 nM	167%	50%	–	–	–	–
COc1ccc2c(c1)OC(c1ccc(OC[C@@H](O)CO)nn1)C[C@H]2NC(=O)[C@@]1(C)COc2cc3c(cc21)OC(F)(F)O3 (stereo partly drawn) [Example 252, (7R)—N-[(4R)-2-{6-[(2S)-2,3-dihydroxypropoxy]pyridazin-3-yl}-7-methoxy-3,4-dihydro-2H-1-benzopyran-4-yl]-2,2-difluoro-7-methyl-6,7-dihydro-2H-furo[2,3-f][1,3]benzodioxole-7-carboxamide]	90 nM	110%	–	–	–	32 nM	106%
Cc1ccc(NC(=O)C2(C)CCc3c2ccc2c3OCO2)cc1-c1cccc(C(=O)O)c1 (stereo not shown) [Example 36, 2′-methyl-5′-[(6-methyl-7,8-dihydro-2H,6H-indeno[4,5-d][1,3]dioxole-6-carbonyl)amino][1,1′-biphenyl]-3-carboxylic acid]	1240 nM	79%	–	–	77%	–	–

More lines, now with the values ahead:

EC50 [1]	Maximum % activity (%) [1]	Maximum % activity (%) ([2]; testing concentration 1 μM)	Maximum % activity (%) ([2]; testing concentration 3 μM)	Maximum % activity (%) ([2]; testing concentration 10 μM)	EC50 [2]	Maximum % activity (%) [2, 3]	Structure (SMILES)
980 nM	122%	–	–	47%	–	–	CC1(C(=O)Nc2cc(C3CC3)nn(-c3ccc(C(=O)O)cc3)c2=O)COc2cc3c(cc21)OC(F)(F)O3 (stereo not shown) [Example 30, 4-{3-cyclopropyl-5-[(2,2-difluoro-7-methyl-6,7-dihydro-2H-furo[2,3-f][1,3]benzodioxole-7-carbonyl)amino]-6-oxopyridazin-1(614)-yl}benzoic acid]
2060 nM	72%	–	–	–	2580 nM	67%	CC(C)(CO)c1nc2cc(NC(=O)[C@@]3(C)COc4cc5c(cc43)OC(F)(F)O5)c(F)cc2n1C[C@@H](O)CO [Example 137, (7R)—N-{1-[(2R)-2,3-dihydroxypropyl]-6-fluoro-2-(1-hydroxy-2-methylpropan-2-yl)-1H-benzimidazol-5-yl}-2,2-difluoro-7-methyl-6,7-dihydro-2H-furo[2,3-f][1,3]benzodioxole-7-carboxamide]
950 nM	210%	–	–	–	98 nM	50%	C[C@]1(C(=O)Nc2cc3cc(C4(CO)CCC4)[nH]c3cc2F)COc2cc3c(cc21)OC(F)(F)O3 [Example 172, (7R)-2,2-difluoro-N-{6-fluoro-2-[1-(hydroxymethyl)cyclobutyl]-1H-indol-5-yl}-7-methyl-6,7-dihydro-2H-furo[2,3-f][1,3]benzodioxole-7-carboxamide]
300 nM	159%	–	–	–	242 nM	99%	Cc1ccc(NC(=O)C2(C)COc3cc4c(cc32)OC(F)(F)O4)nc1-c1cccc(C(=O)O)c1 (stereo not shown) [Example 2, 3-{6-[(2,2-difluoro-7-methyl-6,7-dihydro-2H-furo[2,3-f][1,3]benzodioxole-7-carbonyl)amino]-3-methylpyridin-2-yl}benzoic acid]
